For assay [1], the system named is E. coli (−). As to the kind of experiment: porfimer sodium aPDT, planktonic culture. It is filed as cell-based, Escherichia coli. Particulars: 630 nm, 200 J/cm2, porfimer sodium 125 μg/mL. On the procedure:
(§1) Bacteria were routinely cultured using tryptic soy broth or agar at 37° C. in a 5% CO2 incubator. Bacteria were isolated and suspended with 0.9% NaCl to an Optical Density (OD) of 0.1 taken at 630 nm, to generate the inoculum used for either planktonic or biofilm assays.
Experiments using planktonic cultures were carried out using M. catarrhalis, as a standard for further comparisons and to determine the effective drug concentration, porfimer sodium incubation time and light dose parameters which would provide an effective cell kill at the level of 5-7 logs. Once determined the experiments were repeated for all other bacterial strains examined.
The colony forming units (CFU) per mL of the starting inoculum for every experiment was determined by dilution plating. […]
(§2) Bacteria were exposed to 630 nm laser light via a fiber optic with a lens affixed to the distal end to provide a uniform diverging light field. […] Power output of the laser was measured using a UDT/Gamma Scientific 371 optical power meter and an integrating sphere. […]
(§3) Biofilms were formed on glass coupons in culture dishes containing a bacterial inoculum for 48 hours under conditions specific to the strain. […] Power output of the laser was measured using a UDT/Gamma Scientific 371 optical power meter and an integrating sphere. […]

Assay [2] concerns methicillin-resistant Staphylococcus aureus (MRSA), Staphylococcus aureus ATCC BAA 1768. As to the kind of experiment: partial thickness wound model, microbial load in wound swabs (Example 4). The class given is in vivo, Yorkshire pig. The following applies: for overall decrease of mean microbial load in wound swabs over the course of treatment (SD1 to SD3): untreated Group 2: 20-fold; for WOUND SWABS (CFU/mL) 24 hr. Post-Treat 2 / WOUND SWABS (CFU/mL) Immediately Post-Treat 2 / WOUND SWABS (CFU/mL) Pre-treat 2 / WOUND SWABS (CFU/mL) Pre-Treat 1: individual wounds; for WOUND SWABS (CFU/mL) Pre-Treat 1: 1.0 mg/mL. As to the method: Bacteria strains were obtained from ATCC (Manassas, VA). Bacteria were propagated from glycerol stock store at −80° C. A stab of the glycerol stock was used to inoculate 5 mL of trypticase soy broth. The cultures were incubated overnight at 37° C. with shaking at 250 rpm. The following day, a portion of overnight culture was used to prepare a streak plate onto an Oxacillin screen plate which was incubated overnight at 37° C. and single colony isolates of freshly plated bacteria were used to prepare bacterial inoculum. The morning of wounding an infection, a portion of overnight culture was used to inoculate 50 mL of trypticase soy broth and the newly inoculated media was incubated at 37° C. with shaking at 250 rpm until log phase growth was reached. The bacteria were pelleted by centrifugation at 4,000 rpm at 4° C. for 10 minutes in a Sorval tabletop centrifuge. The culture supernatant was discarded, and the bacterial pellets were suspended in a volume of sterile PBS to yield a concentration of 2×10^7 CFU/mL.
Wounds were swabbed with a sterile cotton tipped applicator in a serpentine motion starting at the upper left-hand margin of the wound and ending at the bottom right wound margin. A dry sterile cotton tipped applicator was used for all wounds. The swabs were placed into 14 mL falcon tubes containing 1 mL of sterile PBS. The tubes were vigorously vortexed and serial 10-fold dilutions of the PBS in the tubes containing the swabs were prepared. One hundred microliters of select dilutions for wound groups were plated onto agar plates. The plates were incubated at 35-37° C. and colonies enumerated manually. The data are reported as CFU/swab normalized to the volume of PBS in which the swabs were placed.
This study evaluated the ability of porfimer sodium to reduce/eliminate microbial colonization and biofilm from surgical sites in a partial thickness would healing model. The study was conducted in a single female Yorkshire pig over the course of five days. A dermatome was used to create 20 partial thickness wounds. Sixteen of the wounds were infected with methicillin-resistant Staphylococcus aureus (MRSA), and four were designated as uninfected controls. The wounds were bandaged and the bacterial biofilm allowed to develop for 48 hours.
Designated infected wounds were subjected to two courses of treatment with the test article at a periodicity of 24 hours. Article dose concentration of 1.0 mg/mL of porfimer sodium was prepared as described in Example 3, and used immediately, with the exception of two wounds (L6 and L7) where the test article (reconstituted porfimer sodium) was mixed 1:1 with NeilMed NasalGel.
Treatments consisted of application of the test article followed by photoactivation with one or two intensities of light, 150 J/cm^2 or 200 J/cm^2 (Table 3). Wounds were evaluated for microbial load prior to each course of treatment, immediately following the final treatment and 24 hours following the final treatment. Tissue specimens from infected and non-infected wounds were harvested for histology of biofilm formation at each treatment time point. Tissue specimens from treated wounds were harvested 24 hours following the final treatments for histology.

For assay [3], the system named is M. catarrhalis (−). In words: porfimer sodium aPDT, 48 hour biofilm culture. Particulars: 630 nm, kill at 75 J/cm2 (light dose 75-100 J/cm2), porfimer sodium 250 μg/mL. The class given is cell-based, Moraxella catarrhalis. On the procedure:
as §1
The colony forming units (CFU) per mL of the starting inoculum for every experiment was determined by dilution plating. Control samples were exposed to laser at 630 nm in the absence of porfimer sodium, porfimer sodium in the absence of laser exposure, or in saline alone in the absence of porfimer sodium and 630 nm laser light. All experimental samples were dilution plated to enumerate viable CFU's. Three independent replicates were performed for each reaction condition per strain per assay. […]
as §2, §3

Where [4] appears, read: Group 4 (200 J/cm^2), N 3, without wounds L6, R5, R9.

“And” between values parts separate entries of the source, which are not always exact repeats. Equal entries are not always repeated. Bounds are passed on as bounds.

As for porfimer sodium, the Rate of kill in assay [1] is on record as <1Log. Moreover, in assay [2] (Group 3 (150 J/cm^2), N 6), the “Mean microbial load, Posttreat 2 (swab)” value was 5.33E+03 CFU/swab; the “Mean microbial load, Pretreat 1 (swab)” value came to 9.91E+05 CFU/swab; the “Mean microbial load, Pretreat 2 (swab)” value amounted to 1.90E+05 CFU/swab. Further, in assay [2] (Group 3, 150 J/cm^2), the “additional decrease of mean microbial load in wound swabs following Treatment 2” value is on record as 36 fold, the “decrease of mean microbial load in wound swabs following treatment 1 (SD1 to SD2)” value was found to be 5.2 fold and the “overall decrease of mean microbial load in wound swabs over the course of treatment (SD1 to SD3)” value is 186 fold. In assay [2] (Group 3 = 150 J/cm2 treatment), the “WOUND SWABS (CFU/mL) 24 hr. Post-Treat 2” value is 1.14E+04 CFU/mL and 1.17E+04 CFU/mL and 3.50E+02 CFU/mL and 2.65E+03 CFU/mL and 4.30E+03 CFU/mL; the “WOUND SWABS (CFU/mL) Immediately Post-Treat 2” value is 1.92E+05 CFU/mL and 6.16E+03 CFU/mL; the “WOUND SWABS (CFU/mL) Pre-treat 2” value was 8.80E+04 CFU/mL and 6.60E+05 CFU/mL and 2.74E+03 CFU/mL and 4.20E+04 CFU/mL and 3.45E+05 CFU/mL; the “WOUND SWABS (CFU/mL) Pre-Treat 1” value was 6.30E+05 CFU/mL and 3.03E+06 CFU/mL and 2.88E+05 CFU/mL and 4.00E+03 CFU/mL and 5.40E+04 CFU/mL. Further, in assay [2] (setting [4]), the “Mean microbial load, Posttreat 2 (swab)” value is reported as 1.16E+03 CFU/swab; the “Mean microbial load, Pretreat 1 (swab)” value is listed as 8.53E+05 CFU/swab; the “Mean microbial load, Pretreat 2 (swab)” value is 5.11E+05 CFU/swab. Further, in assay [2] (Group 4, 200 J/cm^2), the “additional decrease of mean microbial load in wound swabs following Treatment 2” value is 250 fold, the “decrease of mean microbial load in wound swabs following treatment 1 (SD1 to SD2)” value stood at 1.7 fold and the “overall decrease of mean microbial load in wound swabs over the course of treatment (SD1 to SD3)” value is 735 fold. In assay [2] (Group 4 = 200 J/cm2 treatment), the “WOUND SWABS (CFU/mL) 24 hr. Post-Treat 2” value is 1.55E+03 CFU/mL and 1.79E+02 CFU/mL and 1.75E+03 CFU/mL and 3.15E+03 CFU/mL and 2.31E+02 CFU/mL; the “WOUND SWABS (CFU/mL) Immediately Post-Treat 2” value was 4.20E+04 CFU/mL and 2.80E+04 CFU/mL; the “WOUND SWABS (CFU/mL) Pre-treat 2” value is 1.40E+04 CFU/mL and 2.00E+04 CFU/mL and 1.50E+06 CFU/mL and 1.44E+06 CFU/mL and 7.60E+00 CFU/mL; the “WOUND SWABS (CFU/mL) Pre-Treat 1” value is 2.42E+05 CFU/mL and 2.60E+04 CFU/mL and 2.29E+06 CFU/mL and 0.00E+00 CFU/mL (2×). Besides, in assay [2] (porfimer sodium mixed in saline), the “consistency of results when applied directly to infected wounds” value is given as “inconsistency in the results”. Further, the Rate of kill in assay [3] is >6Log.

The record behind these values is patent publication US12090204B2, “Photodynamic therapy compositions and methods of use thereof” (Pinnacle Biologics, Inc., priority 2020, dated 2024).
